Like-named read-outs stand apart in the source and are kept apart here.
Tests used:
[1] = test system: retinal neurons; assay: SV2 and MAP2 immunostaining of retina of pertussis toxin treated mice; assay type: in vivo; details: pertussis toxin treated wild type mice
[2] = test system: BBB, mouse brain; assay: IgG immunostaining of brain cortex of PT-treated mice: BBB compromise; assay type: in vivo
Text: This experiment followed the protocol of Example 1. This experiment involved S100B knockout (KO) mice, focusing on age-dependent increase of blood-brain barrier permeability and neuron-binding autoantibodies in SB100KO mice. […] Overlay of IgG immunostaining (red) with DAPI (blue) is presented from cortical region of the brain. (FIG. 18A) In untreated wild type (WT) brains, IgG-positive staining was confined to the microvasculature, indicating intact blood vessels (arrows). […] (FIG. 18C). In the S100BKO mouse brain (KO), even without PT treatment, IgG-positive leaks (marked by white dotted circle) were observed. (FIG. 18D).

[3] = test system: BRB in retinal slice cultures; assay: IgG immunostaining of retinal slice cultures: BRB breach; assay type: cell-based; details: for IgG in neurons (indicator of BRB breach): retinal slices treated with histamine with or without lipoxin A4, FIG. 10
Text: Untreated samples served as control. The slices were then processed to generate cryosections for immunostaining. The location of IgG (an indicator of BRB breach) was monitored by immunostaining.

[4] = test system: Muller cell processes; assay: GFAP immunostaining of ex vivo retinal culture: Muller cell processes; assay type: cell-based; details: retina untreated, histamine only, LXA4 only, or both, FIG. 15
Experimental: This experiment followed the protocol of Example 1. This example illustrates a new analysis added for drug evaluation in ex vivo retinal culture. […] Statistical significance is determined by two-tailed Student's t test. *, P<0.05; **, P<0.01; ***, P<0.001. Mean±SEM is plotted in the graph.

[5] = test system: neurons in mouse brain organotypic cultures; details: 450 μM histamine; for vimentin-positive neurons: 2 mm MBO
Experimental: (§1) Primary mouse brain organotypic cultures were prepared as described previously ((Levin et al., Brain Res. 1298, 194-207, 2009). Briefly, the brains were removed from C57BL/6 mice (n=8) and cut to either 1 mm or 2 mm thickness using a tissue chopper. The brain slices were then placed in medium containing 25% inactivated horse serum, 25% Hanks' BSS, 50% DMEM, and 25 mg/l penicillin-streptomycin (Invitrogen, Carlsbad, Calif.) in 6-well culture dishes and maintained for 30 min at room temperature. The brain slices were then moved to either fresh media (control) or fresh media containing 450 μM histamine (Sigma, Saint Louis, Mo., Cat. No. H7125-1G) in 6-well culture dishes for 1 hr at 37° C. in a 5% CO2-enriched atmosphere. The brain slices were fixed with 4% paraformaldehyde (PFA) in PBS at room temperature and processed for immunohistochemistry as described below.
(§2) The mouse brain organotypic brain slices were stored in 4% PFA overnight at 4° C. The brain slices were then infiltrated with 10% sucrose in PBS for 2 hours, followed by 30% sucrose in PBS overnight at 4° C. under constant, gentle agitation. Using a Leica cryostat, 12 μm thick frozen sections were cut, mounted onto Fisher Super Frost Plus slides, and air dried. Immunohistochemistry for the paraffin-embedded tissues was carried out using procedure well known in the art. Briefly, tissues were deparaffinized using xylene and then rehydrated through a graded series of decreasing concentrations of ethanol. Next, protein antigenicity was enhanced by microwaving sections in citrate buffer. The paraffin-embedded tissues were then processed in the same way as the frozen sections described below.
(§3) Immunohistochemistry for the frozen sections was carried out as previously described ((Levin et al., Brain Res. 1298, 194-207, 2009). Briefly, tissues were rehydrated with PBS for 2 min. The endogenous peroxidase was quenched by treating sections with 0.3% H202 for 30 min. First, sections were incubated in blocking serum for 30 min. at room temperature, and then treated with primary antibodies at appropriate dilutions for 1 hr at room temperature. Next, sections were thoroughly rinsed with PBS, and sections were incubated with biotin-labeled secondary antibody for 30 min. at room temperature. Sections were then treated with the avidin-peroxidase-labeled biotin complex (ABC, Vector Labs, Foster City, Calif.) and visualized by treating with either 3-3-diaminobenzidine-4-HCL (DAB)/H2O2 (Biomeda, Foster City, Calif.) or NovaRed (Vector Labs, Foster City, Calif., Cat. No. SK-4800). Sections were then lightly counterstained with hematoxylin, dehydrated through increasing concentrations of ethanol, cleared in xylene and mounted in Permount. Specimens were examined and photographed with a Nikon FXA microscope, and digital images were recorded using a Nikon DXM1200F digital camera and processed using Image Pro Plus (Phase 3 Imaging, Glen Mills, Pa.) image software.
(§4) Leaky and non-leaky vessels, GFAP-positive and -negative astrocytes, and vimentin-positive and -negative neurons were counted in sections of primary mouse brain organotypic culture slices. Images were optimized and counting was performed using the counting feature of Adobe Photoshop CS3. Three sections were examined per treatment group, with at least ten viewing fields counted from each section, for a total of 30 viewing fields per treatment group. Only blood vessels with endothelial cell nuclei, astrocytes with their nuclei, and neurons with their nuclei within the plane of section were included in the count. […] The percentage of total leaky vessels, GFAP-positive astrocytes, and vimentin-positive neurons for histamine treated and control slices were determined.
(§5) Immunohistochemistry (IHC) was used to evaluate the effects of histamine on BBB permeability and the response of cells within the surrounding brain parenchyma.

[6] = test system: BBB (blood vessels) in mouse brain organotypic cultures; details: 450 μM histamine; for blood vessel leakage: 1 hour; for percentage of leaky vessels (IgG extravasated out of blood vessels): 2 mm MBO
Experimental: as §1, §2, §3, §4, §5

[7] = test system: astrocytes in mouse brain organotypic cultures; details: 450 μM histamine; for GFAP-positive astrocytes (GFAP expression): 1 hr, 2 mm MBO
Experimental: as §1, §2, §3, §4, §5

[8] = test system: MAP2 expression in retinal slices; details: retinal slices treated with histamine 0, 30, 60 or 90 min, FIG. 9
Text: (§6) The slices were then processed to generate cryosections for immunostaining.

[9] = test system: GFAP expression in retinal slices; details: retinal slices treated with histamine 0, 30, 60 or 90 min, FIG. 8
Text: as §6

Pertussis toxin [PT]
retinal neuronal damage by SV2 and MAP2 immunostaining [1]: displays retinal neuronal damages | IgG binding to neurons in brain cortex ([2]; S100BKO mice treated with PT, FIG. 18D): intensely bound by IgG | IgG-positive staining in brain cortex ([2]; wild type (WT) mice with PT treatment, FIG. 18B): IgG-positive microvascular leaks

CCCCC[C@H](O)/C=C/C=C\C=C\C=C\[C@@H](O)[C@@H](O)CCCC(=O)O [LXA4, lipoxin A4]
IgG in neurons (indicator of BRB breach) [3]: conferred protection from these effects | Muller cell processes (GFAP staining, width) [4]: Rescued

NCCc1c[nH]cn1 [histamine]
BRB integrity, location of IgG ([3]; retinal slices after histamine treatment, FIG. 7): BRB breakdown and extravasated IgG surrounding blood vessels | IgG in neurons (indicator of BRB breach) [3]: neurons were loaded with IgG | neuronal damage-responses ([5]; 1 hour, 1 mm MBOs): 51.8% | vimentin expression by neurons ([5]; 1 hour, 2 mm MBOs): 46.5% | vimentin-positive neurons ([5]; 1 hr, distal portion): 47.5% | vimentin-positive neurons ([5]; 1 hr, middle portion): 45.1% | vimentin-positive neurons ([5]; 1 hr, proximal portion): 47% | increase in neurons expressing vimentin compared to control sections ([5]; 1 hr, MBO, FIG. 5C): greater than four-fold | blood vessel leakage ([6]; 1 mm MBOs): 30.9% | blood vessel leakage ([6]; 2 mm MBOs): 24.4% | percentage of leaky vessels (IgG extravasated out of blood vessels) ([6]; 1 hr, distal portion (700-1050 μm)): 32.4% | percentage of leaky vessels (IgG extravasated out of blood vessels) ([6]; 1 hr, middle portion (350-700 μm)): 24.7% | percentage of leaky vessels (IgG extravasated out of blood vessels) ([6]; 1 hr, proximal portion (0-350 μm)): 19.9% | perivascular leakage, histamine treated compared to controls, overall ([6]; 1 hr, MBO, FIG. 5A): more than two-fold | astrocyte activation ([7]; 1 hour, 1 mm MBOs): 47.7% | GFAP expression by astrocytes ([7]; 1 hour, 2 mm MBOs): 45.7% | GFAP-positive astrocytes (GFAP expression) ([7]; distal portion): 48.4% | GFAP-positive astrocytes (GFAP expression) ([7]; middle portion): 45.1% | GFAP-positive astrocytes (GFAP expression) ([7]; proximal portion): 43.6% | Muller cell processes (GFAP staining, width) [4]: Compromised | MAP2 expression [8]: decrease in MAP2 expression | GFAP expression [9]: elevation in GFAP expression

From patent US20180292390A1 (priority 2015, published 2018)
